Read-outs that look alike come from different tables or passages of the source.
How the values were obtained:
human EGF-R = target: T1, human EGF-R (Homo sapiens, UniProt P00533); experiment: EGF-R whole cell kinase assay (EGF-R-3T3 ELISA); type: cell-based; conditions: for IC50: whole cell, EGF-stimulated EGF-R phosphorylation, free base, read-out: EGFR Kinase IC50
T1 construct: expressed in transfected cells; host or cells: NIH3T3 clone C7 (mouse fibroblasts)
Experimental: The activity of the above identified compounds in inhibiting EGF-stimulatedEGF-R phosphorylation was measured in an ELISA assay.
EGF-R kinase activity (EGF-R-3T3 assay) in whole cells was measured as described below:
Coated plates are good for up to 10 days when stored at 4° C.
On day of use, remove coating buffer and replace with blocking buffer (5% Carnation Instant NonFat Dry Milk in PBS). Incubate the plate, shaking, at room temperature (about 23° C. to 25° C.) for 30 minutes. Just prior to use, remove blocking buffer and wash plate 4 times with TBST buffer.
EGF-R/C7 cell line was used for this assay.
Choose dishes having 80-90% confluence for the experiment. Trypsinize cells and stop reaction by adding 10% CS DMEM medium. Suspend cells in DMEM medium (10% calf serum (CS) DMEM medium) and centrifuge once at 1000 rpm, and once at room temperature for 5 minutes.
Resuspend cells in seeding medium (DMEM, 0.5% bovine serum), and count the cells using trypan blue. Viability above 90% is acceptable. Seed cells in DMEM medium (0.5% bovine serum) at a density of 10,000 cells per well, 100 μl per well, in a 96 well microtiter plate. Incubate seeded cells in 5% CO2 at 37° C. for about 40 hours.
Check seeded cells for contamination using an inverted microscope. Dilute drug stock (10 mg/ml in DMSO) 1:10 in DMEM medium, then transfer 5 μl to a test well for a final drug dilution of 1:200 and a final DMSO concentration of 1%. Control wells receive DMSO alone. Incubate in 5% CO2 at 37° C. for one hour.
Control wells receive DMEM alone. Incubate and shake at room temperature for 5 minutes.
Remove drug, EGF, and DMEM. Wash cells twice with PBS. Transfer HNTG* to cells, 100 μl per well. Place on ice for 5 minutes. Meanwhile, remove blocking buffer from other ELISA plate and wash with TBST as described above.
With a pipette tip securely fitted to a micropipettor, scrape cells from plate and homogenize cell material by repeatedly aspirating and dispensing the HNTG* lysis buffer. Transfer lysate to a coated, blocked, and washed ELISA plate. Incubate and shake at room temperature for one hour.
Remove lysate and wash 4 times with TBST. Transfer freshly diluted anti-phosphotyrosine (anti-Ptyr) antibody to ELISA plate at 100 μl per well. Incubate shaking at room temperature for 30 minutes in the presence of the anti-Ptyr antiserum (1:3000 dilution in TBST).
Remove the anti-Ptyr antibody and wash 4 times with TBST. Transfer the freshly diluted TAGO 30 anti-rabbit IgG antibody (anti-rabbit IgG antibody: 1:3000 dilution in TBST) to the ELISA plate at 100 μl per well. Incubate shaking at room temperature for 30 minutes.
Remove detection antibody and wash 4 times with TBST. Transfer freshly prepared ABTS/H2 O2 solution to ELISA plate, 100 μl per well. Incubate at room temperature for 20 minutes. ABTS/H2 O2 solution: 1.2 μl 30% H2 O2 in 10 ml ABTS stock.
Stop reaction by adding 50 μl 5N H2 SO4 (optional), and determine O.D. at 410 nm.
The maximal phosphotyrosine signal is determined by subtracting the value of the negative controls from the positive controls. The percent inhibition of phosphotyrosine content for extract-containing wells is then calculated after subtraction of the negative controls.

[1] = test system: NIH 3T3 C7 cells engineered to express EGF-R (3T3-EGFR); experiment: 3T3 cell growth assay, EGF-R C7 cells (3T3-EGFR); type: cell-based; conditions: Mus musculus, NIH3T3, 96 h, read-out: 3T3-EGFR IC50
Experimental: The efficacy of the above identified compounds in inhibiting or reducing EGF-R stimulated proliferation is measured by the 3T3 cell growth assay. The 3T3 growth assay was carried out as follows:
EGF-RC7 (NIH 3T3 C7 cells engineered to express EGF-R) and NIH 3T3C7 cells (as the control) were used for this assay. NIH3T3C7 cells were seeded at 2500 cells/well, […] in 10% CS+2 mM Glutamine/DMEM, in a 96 well plate; EGF-RC7 cells were seeded at 6000 cells/well, 100 μl/well in 2% FBS+2 mM Glutamine/DMEM, in a 96 well plate. Cells were incubated at 37° C., 5% CO2 overnight to allow for cell attachment to the plate.
A quinazoline compound was added to the cells at day 2. The compound was prepared in the appropriate growth medium (10% CS+2 mM glutamine in DMEM for NIH3T3C7 cells; 2% FBS+2 mM Glutamine in DMEM for EGF-RC7 cells) in a 96 well plate, and serially diluted. A total of 100 μl/well medium of the diluted compounds was added into the cells. The total volume of each well was 200 μl.
After the cells were treated with the compound for 4 days, the cells were washed with PBS and fixed with 200 μl/well ice-cold […] for one hour at 0-5° C.
Remove TCA and rinse wells 5 times with deionized water. Dry plates upside down with paper towels. Stain cells with 0.4% SRB at 100 μl/well for 10 minutes.
Pour off SRB and rinse plate 5 times with 1% acetic acid. Dry plate completely.
Solubilize the dye with 10 mM Tris-base at 100 μl/well for 10 minutes on a shaker.
Read the plate at dual wavelengths at 570 nm and 630 nm on Dynatech Elisa plate reader.

3T3-PDGFR = experiment: cell growth assay, PDGFR expressing cells (3T3-PDGFR), selectivity; type: cell-based; conditions: for IC50: 96 h, read-out: 3T3-PDGFR IC50; for PDGFR/EGFR IC50/IC50: ratio 3T3-PDGFR / 3T3-EGFR, 5760 min
in vivo = conditions: single dose, IP, BALB/c female mice; for LD50 at 168 h: mouse, in vivo; for LD50 at 168 h / LD10: 7 days; for deaths: at the dose for LD10/LD50
[2] = Plasma concentration after single IP dose; type: in vivo; conditions: mouse, plasma, single dose 50 mg/kg IP, BALB/c nu/nu female mice; for concentration at […]: 15 min; for concentration at 1 h: 60 min
Experimental: **Single dose (50 mg/kg), IP, in BALB/c, nu/nu, female mice.

[3] = test system: psoriatic human keratinocytes; experiment: Growth of psoriatic human keratinocytes; type: cell-based
Source text: Cells and Cell Culture. All tumor cell lines were obtained from the American Type Culture Collection (Rockville, Md.), unless otherwise specified. NIH3T3 mouse fibroblasts overexpressing the EGF receptor, IGF-1 receptor, insulin receptor, PDGF-b receptor, or a chimera of the EGF receptor extracellular domain fused to the Her-2 cytoplasmic domain were engineered using retroviral vectors. These cells will be referred to as 3T3-EGFR, 3T3-IGF1R, 3T3-IR, 3T3-PDGF-bR, and 3T3-EGFR/Her-2, respectively. All cell culture media and supplements were purchased from Gibco Life Technologies (Grand Island, N.Y.) unless otherwise specified. […] Cell lines were maintained under standard conditions in culture media recommended by the ATCC, unless otherwise specified. 3T3-EGFR, 3T3-PDGF-bR, and 3T3-EGFR/Her-2 cells were maintained in DMEM containing 10% calf serum (CS) and 2 mM GLN. 3T3-IGF1R and 3T3-IR cells were maintained in DMEM containing 10% FBS and 2 mM GLN. Keratinocytes were obtained from small biopsy specimens of split-thicknessskin from patients with psoriasis and from healthy control donors.
In vitro functional studies. […] Cell lines examined in receptor phosphorylation ELISA were 3T3-EGFR, 3T3-EGFR/Her-2, 3T3-PDGF-bR, 3T3-IGF1R, and 3T3-IR. For analysis of DNA replication (measured as incorporation of BrdU) and cell cycle progression, 3T3-EGFR and 3T3-PDGF-bR cell lines were used. Cell growth studies were carried out on A431 (EGF-R+), BT474 (Her-2+), and C6 (PDGF-bR+) cell lines.

T1 sequence (P00533 25-1210): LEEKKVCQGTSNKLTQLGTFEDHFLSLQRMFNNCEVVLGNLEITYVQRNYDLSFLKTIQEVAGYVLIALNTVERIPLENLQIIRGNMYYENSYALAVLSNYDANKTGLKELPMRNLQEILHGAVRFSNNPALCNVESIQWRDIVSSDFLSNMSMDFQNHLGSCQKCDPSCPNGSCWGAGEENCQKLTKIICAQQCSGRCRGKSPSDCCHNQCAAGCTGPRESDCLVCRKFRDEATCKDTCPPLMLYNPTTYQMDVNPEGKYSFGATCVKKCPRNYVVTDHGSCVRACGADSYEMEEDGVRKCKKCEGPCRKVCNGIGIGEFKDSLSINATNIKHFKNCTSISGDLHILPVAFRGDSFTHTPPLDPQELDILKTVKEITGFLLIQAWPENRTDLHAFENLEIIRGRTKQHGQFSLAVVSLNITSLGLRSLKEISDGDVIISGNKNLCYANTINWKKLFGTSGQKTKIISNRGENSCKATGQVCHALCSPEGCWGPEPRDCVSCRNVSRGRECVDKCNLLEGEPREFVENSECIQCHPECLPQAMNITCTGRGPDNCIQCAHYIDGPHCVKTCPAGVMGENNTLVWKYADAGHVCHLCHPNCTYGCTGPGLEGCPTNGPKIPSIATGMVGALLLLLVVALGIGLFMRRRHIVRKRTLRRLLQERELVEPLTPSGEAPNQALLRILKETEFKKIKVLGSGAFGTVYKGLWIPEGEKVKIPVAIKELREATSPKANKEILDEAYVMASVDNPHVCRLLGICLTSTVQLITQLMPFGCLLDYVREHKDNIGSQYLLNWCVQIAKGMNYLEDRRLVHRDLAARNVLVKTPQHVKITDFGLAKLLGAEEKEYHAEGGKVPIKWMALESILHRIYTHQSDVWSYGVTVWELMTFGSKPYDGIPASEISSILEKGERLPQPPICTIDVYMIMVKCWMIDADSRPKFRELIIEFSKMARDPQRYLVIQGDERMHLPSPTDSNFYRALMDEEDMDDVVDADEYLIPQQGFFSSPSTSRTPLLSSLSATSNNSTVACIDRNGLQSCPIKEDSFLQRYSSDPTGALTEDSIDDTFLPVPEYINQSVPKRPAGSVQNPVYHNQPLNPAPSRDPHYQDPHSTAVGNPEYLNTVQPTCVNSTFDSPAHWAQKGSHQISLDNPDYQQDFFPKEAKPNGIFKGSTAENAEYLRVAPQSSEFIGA

Compound | inhibition of EGF-stimulated EGF-R phosphorylation (in words) (human EGF-R) | IC50 [1] | IC50 (3T3-PDGFR) | LD50 at 168 h (in vivo) | LD10 (in vivo) | deaths (in vivo) | concentration at 5 min [2] | concentration at […] [2] | concentration at 1 h [2] | inhibition of psoriatic skin cell / keratinocyte proliferation in vitro (in words) [3] | IC50 (human EGF-R) | IC50 ([1]; cell growth, 4 days, free base) | IC50 (3T3-PDGFR; cell growth, 4 days, free base) | PDGFR/EGFR IC50/IC50 (3T3-PDGFR) | LD40 (in vivo; printed in LD10 and LD50 columns)
COc1cc2ncnc(Nc3cccc(Cl)c3)c2cc1OC [A2, 4-(3-Chlorophenylamino)-6,7-dimethoxyquinazoline] | able to inhibit | 0.11 µM | 18 µM | > 200 mg/kg | > 200 mg/kg | no | 11500 ± 4000 ng/mL | 6500 ± 1300 ng/mL | 3700 ± 500 ng/mL | capable of inhibiting | – | – | – | – | –
Cc1ccc2ncnc(Nc3cccc(Cl)c3)c2c1 [A3, 4-(3-Chlorophenylamino)-6-methylquinazoline] | able to inhibit | – | – | > 400 mg/kg | – | – | 7870 ± 980 ng/mL | 3430 ± 820 ng/mL | 1340 ± 110 ng/mL | capable of inhibiting | 0.058 µM | 2 µM | 10 µM | 5 | –
COc1cc2ncnc(Nc3cccc(C(F)(F)F)c3)c2cc1OC [A4, 4-[3-(trifluoromethyl)phenylamino]-6,7-dimethoxyquinazoline] | able to inhibit | – | – | – | – | – | 13300 ± 1500 ng/mL | 12700 ± 3000 ng/mL | 3900 ng/mL | capable of inhibiting | < 0.006 µM | 0.4 µM | 28 µM | 70 | 400 mg/kg
COc1cc2ncnc(Nc3cccc(C#N)c3)c2cc1OC [A5, 4-(3-Cyanophenylamino)-6,7-dimethoxyquinazoline] | able to inhibit | – | – | > 153 mg/kg | > 153 mg/kg | no | 950 ± 420 ng/mL | 650 ± 190 ng/mL | 130 ± 60 ng/mL | capable of inhibiting | 0.2 µM | 1.5 µM | > 100 µM | 67 | –
Cc1ccc2ncnc(Nc3cccc(C(F)(F)F)c3)c2c1 [A6, 4-[3-(trifluoromethyl)phenylamino]-6-methylquinazoline] | able to inhibit | – | – | > 400 mg/kg | > 400 mg/kg | no | 4450 ± 1380 ng/mL | 2010 ± 530 ng/mL | 540 ± 200 ng/mL | capable of inhibiting | 0.9 µM | 6 µM | 30 µM | 5 | –
